These results are taken from publication PMC4077696 (PLoS Biology, 2014).

Experiment [1] relates to P. falciparum NF54 expressing PMVHA-glmS. The experiment is described as follows: Dose-response growth assay of parasites expressing PMVHA-glmS or PMVHA-M9 with or without GlcN. It is filed as cell-based, Plasmodium falciparum. The protocol:
Parasites expressing PMVHA-glmS were next assessed for toxicity to 916.
In the case of dose-response curves, medium was kept for the entire experiment; in the case of curves in Figure 4B,C, medium was replaced with inhibitor-free medium at 48 h postinfection. Parasitaemia was always determined at 72 h by flow cytometry. To knock down PMV, GlcN (Sigma) was added to trophozoites and drug curves initiated by adding compound at subsequent rings (24 h) for 24–72 h.

The next experiment addresses beta-secretase (BACE-1) (Homo sapiens, UniProt P56817). The experiment is described as follows: Off-target activity against human aspartyl protease BACE-1. It is filed as biochemical.

pIC50: −log10 of the molar value. Structures can show the parent of a compound that is named as a salt.

beta-secretase (BACE-1), sequence (P56817 46-501): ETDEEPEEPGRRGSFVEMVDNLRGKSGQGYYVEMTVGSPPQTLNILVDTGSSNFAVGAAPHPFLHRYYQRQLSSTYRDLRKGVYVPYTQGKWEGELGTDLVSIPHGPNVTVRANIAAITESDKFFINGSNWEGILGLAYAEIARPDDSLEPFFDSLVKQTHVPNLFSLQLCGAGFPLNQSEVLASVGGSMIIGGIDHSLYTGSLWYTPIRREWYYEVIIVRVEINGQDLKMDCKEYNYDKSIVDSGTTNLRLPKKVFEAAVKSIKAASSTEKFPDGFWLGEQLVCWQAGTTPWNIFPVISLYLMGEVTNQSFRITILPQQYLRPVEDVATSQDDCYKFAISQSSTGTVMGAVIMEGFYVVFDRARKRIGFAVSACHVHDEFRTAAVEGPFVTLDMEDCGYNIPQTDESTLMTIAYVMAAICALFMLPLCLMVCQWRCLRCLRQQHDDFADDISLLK

With `CC(C)C[C@H](NC(=O)[C@@H](NC(=O)[C@H](CCCNC(=N)N)NS(=O)(=O)Cc1ccccc1)C(C)C)[C@@H](O)CC(=O)NCCc1ccccc1` [compound 916, PhCH2SO2-Arg(NH2)-Val-Sta-NH(CH2)2Ph .TFA], the “Decrease in EC50 in presence of GlcN, PMVHA-M9 control” value in experiment [1] (PMVHA-M9 (inactive glmS), with versus without GlcN) is on record as 1.4 fold. Further, the “Decrease in EC50 following PMV knockdown” value in experiment [1] (PMVHA-glmS, 6 mM GlcN versus no GlcN, 72 h) was 3.3 fold. For the same compound, the negative-log IC50 (pIC50) (as a rule, −log10 of the IC50, conventionally taken in molar units) on beta-secretase (BACE-1) was less than 4.00.
